Patent US9791436B2, “Protease-based biosensor” (priority 2012, dated 2017)
pKd: −log10 of the molar value.

Tests used:
ePDZ-b1 = settings: cited from earlier work
[1] = biological target: T1, Erbin-PDZ-FN affinity clamp complex (Homo sapiens, UniProt Q96RT1); assay: Induction of the TVMV-based allosteric receptor by PDZ ligands of different affinity; format: biochemical; settings: FIG. 11C
T1 construct: made in house; host or cells: E. coli BL21(DE3)-RIL
Description: The maximum induction ratio of TVMV-based allosteric receptors (500 nM) was measured in a similar fashion in the presence or absence of the PDZ ligand peptide-1 ([…]) at a final concentration of 10 μM in protease assay buffer consisting of 50 mM Tris-HCl, 1 M NaCl, 1 mM DTT and 0.5 mM EDTA, pH 8.0. The reaction was generally initiated following the addition of TVMV substrate peptide (Table 1) to a final concentration of 10 μM.
A set of different allosterically regulated proteases was constructed by varying the composition of the three different linkers connecting TVMV to the Erbin-PDZ domain (Linker 1), the Erbin-PDZ domain to the FN3 domain (Linker 2) and the FN3 domain to the AI-domain (Linker 3). […] The largest modulation was effected by progressively shortening and lengthening linker L1.

ePDZ-b1, sequence (as listed by the source): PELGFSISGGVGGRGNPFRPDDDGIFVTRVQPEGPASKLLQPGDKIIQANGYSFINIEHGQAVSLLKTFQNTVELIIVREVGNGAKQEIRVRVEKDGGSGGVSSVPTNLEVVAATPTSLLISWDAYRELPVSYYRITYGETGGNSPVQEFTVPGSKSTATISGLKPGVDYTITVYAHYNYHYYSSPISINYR
T1 sequence (Q96RT1 with tags, fused parts or gaps limits assumed): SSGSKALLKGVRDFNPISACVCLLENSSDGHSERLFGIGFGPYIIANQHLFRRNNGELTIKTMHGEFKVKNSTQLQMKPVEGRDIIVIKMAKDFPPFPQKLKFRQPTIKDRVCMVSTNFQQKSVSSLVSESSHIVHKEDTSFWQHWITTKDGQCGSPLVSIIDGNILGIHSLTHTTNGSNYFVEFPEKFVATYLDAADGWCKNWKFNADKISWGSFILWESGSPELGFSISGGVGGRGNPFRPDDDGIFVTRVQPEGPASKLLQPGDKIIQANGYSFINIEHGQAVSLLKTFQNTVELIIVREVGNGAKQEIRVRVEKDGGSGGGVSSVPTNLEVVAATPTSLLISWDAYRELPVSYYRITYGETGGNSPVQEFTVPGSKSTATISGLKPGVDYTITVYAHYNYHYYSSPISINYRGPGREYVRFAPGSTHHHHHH

Row | Sequence | pKd (ePDZ-b1) | induction of activity compared to the higher affinity PDZ peptide ligand-1 [1]
1 | RGSIDTWV [PDZ-Ligand 1] | ~9.20 | 
2 | PQPVDSWV [PDZ-Ligand 2] | ~8.30 | approximately 10 fold lower
